Results taken from patent US7888393B2, “Transdermal compositions” (Microdermis Corporation, priority 2002, dated 2011).

How the values were obtained:
[1] = pH of quaternary compounds, fatty acids and their reaction products in water (calibrated pH meter); type: physicochemical; details: for pH of product compound (reaction of quaternary compound with fatty acid): molar ratio DDAC to fatty acid 1:1, 70-75 °C, after 10 minutes
Procedure: Example 2 was repeated employing the fatty acids; Conjugated Linoleic Acid (CLA); eicosapentaenoic acid (EPA); and gamma linolenic acid (GLA), were all dissolved in water and the pH of the resulting solutions were measured with a calibrated pH meter.
Three solutions of DDAC (188.2 g) in distilled water (2,000 g) were contacted with masses of CLA, EPA and GLA, such that the molar ratio of DDAC to each of the aforementioned fatty acids was 1:1 at a temperature of 70° C. to 75° C. and after 10 minutes the pH of the reaction products of each of these products was measured.
Merquat 550 is a trademark owned by Calgon, Inc. its manufacturer, for a proprietary cationic polymer having a repeating unit molecular weight of 680 and an overall molecular weight of about 10,000. The pH of these first transdermal compositions were measured. […] Ten minutes after acid addition, the pH of the product composition were measured.

open wounds = assay: Seventh transdermal composition on open wounds of patients (healing, pain); type: in vivo
From the text: As one skilled in the art can well appreciate there are endless numbers of combinations that can be made to create the desired skin effects. For example, when the quaternary ammonium salt, such as […] (DDAC), and the like, is present in a neutral pH in the first transdermal composition of the present invention described hereinabove, the formic acid from the bug bite is more effectively and more rapidly neutralized. On the other hand, when the quaternary ammonium salt, e.g., DDAC, is present in the seventh transdermal composition of the present invention, the healing rate on open wounds improves. However, when the quaternary ammonium salt, e.g., DDAC, is not substantially converted to the first reaction product, some of the patients, approximately 25% thereof, feel pain.

[2] = Stability of benzethonium chloride added to the transdermal mixtures; type: physicochemical
Procedure: When benzethonium chloride is added in therapeutically effective amounts to the mixtures described herein, it is stable if added at ambient temperature at a pH greater than 6. On the other hand, it is not stable if added at temperatures below the Freezing Zone and above ambient temperature at a pH of about 7.5 to about 8.

[3] = DDAC split between first reaction product (80%) and unreacted DDAC (20%)

## CC/C=C\C/C=C\C/C=C\CCCCCCCC(=O)[O-].CCCCCCCCCCCCCCCCCC[N+](C)(C)CCCCCCCCCCCCCCCCCC [DDAL, Dimethyl Distearyl Ammonium Linolenate]
[1]
  pH of product compound (reaction of quaternary compound with fatty acid): 2.28

## dimethyl distearyl ammonium stearate [DDAS]
[1]
  pH of product compound (reaction of quaternary compound with fatty acid): 2.38

## benzalkonium chloride [BAC]
[1]; 70-75 °C, stearic acid 40 g, ten minutes after acid addition
  pH of Quat and Stearic Acid: 2.40
[1]; mixed with distilled water (2,000 g), before heating
  pH of quaternary compound: 7.83

## CCCCCCCCCCCCCCCCCC[N+](C)(C)CCCCCCCCCCCCCCCCCC.[Cl-] [DDAC, dimethyl distearyl ammonium chloride]
Open wounds; DDAC not substantially converted to the first reaction product
  Patients who feel pain: approximately 25%
Open wounds; [3]
  Healing: rapid healing
  Pain: did not feel pain
[1]; DDAC 188.2 g in distilled water 2,000 g
  pH of quaternary compound in water: 5.38

## CC(C)(C)CC(C)(C)c1ccc(OCCOCC[N+](C)(C)Cc2ccccc2)cc1 [benzethonium chloride]
[2]; added above the Freezing Zone, tip speed greater than Critical Shear Rate, pH about 7.5 to about 8
  Stability of benzethonium chloride in the mixture: stable
[2]; added at ambient temperature at pH greater than 6
  Stability of benzethonium chloride in the mixture: stable
[2]; added below the Freezing Zone and above ambient temperature at pH about 7.5 to about 8
  Stability of benzethonium chloride in the mixture: not stable

## Conjugated Linoleic Acid [CLA]
[1]; fatty acid alone in water
  pH of fatty acid dissolved in water: (4.00)
